In US20240316019A1 (Bayer Aktiengesellschaft, priority 2023, published 2024):

Test system: patients with acute non-cardioembolic ischemic stroke
Conditions: 50 mg daily
Experimental: All participants were required to undergo at least two MRIs that met study requirements. In addition to the baseline MRI (obtained after the index stroke either before randomization or within 72 h after randomization), participants underwent a final study MRI at 26 weeks or as soon as possible after early termination of assigned study treatment. Patients were followed up for at least 26 weeks and up to 52 weeks and assessed for the occurrence of safety, efficacy, and adverse events at 2, 4, 8, 13, 20, 26, 32, 39, 46, and 52 (end of treatment) weeks after randomization, and again 2 weeks after the end of treatment visit. Adherence to assigned therapy was assessed by means of interview and pill count at each clinic visit.
The primary safety outcome was the composite of major bleeding and clinically relevant non-major bleeding, according to the criteria of the International Society on Thrombosis and Haemostasis (ISTH). […] Additional prespecified exploratory safety outcomes included haemorrhagic transformation within the qualifying stroke detected by baseline MRI performed post-study drug or on follow-up study MRIs based on the Heidelberg classification of severity (haemorrhagic infarct 1 or 2 or parenchymal haematoma 1 or 2). […]

CC[C@@H](C(=O)Nc1ccc(C(N)=O)c(F)c1)n1cc(OC)c(-c2cc(Cl)ccc2-n2cc(C(F)(F)F)nn2)cc1=O [Compound A, (4S)-2^4-chloro-4-ethyl-7^3-fluoro-3^5-methoxy-3^2,5-dioxo-14-(trifluoromethyl)-3^2H-6-aza-3(4,1)-pyridina-1(1)-[1,2,3]triazola-2(1,2),7(1)-dibenzenaheptaphane-7^4-carboxamide]
Primary intracerebral haemorrhages, % participants: 1% | Primary intracerebral haemorrhages, n participants: three
